“And” between values parts separate entries of the source, which are not always exact repeats. Equal entries are not always repeated. Inconclusive results and toxic doses are left out.
System: CD2F1 mice, L1210 leukemia ip, survival T/C
Experiment: NCI In Vivo Anticancer Drug Screen. Data for tumor model L1210 Leukemia (intraperitoneal) in CD2F1 (CDF1) mice
Settings: higher = longer survival
Procedure, shortened: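 Activity against a transplanted murine tumor was judged by comparing the compound group with a vehicle group. The outcome in the treated animals was divided by that in the controls.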

[1] = endpoint: mean survival time, dose: 100.0 mg/kg/injection, schedule: Q01DX009 (ip), vehicle: saline with Tween-80
[2] = endpoint: mean survival time, dose: 100.0 mg/kg/injection, schedule: Q04DX003 (ip), vehicle: saline with Tween-80
[3] = endpoint: mean survival time, dose: 200.0 mg/kg/injection, schedule: Q01DX009 (ip), vehicle: saline with Tween-80
[4] = endpoint: mean survival time, dose: 200.0 mg/kg/injection, schedule: Q04DX003 (ip), vehicle: saline with Tween-80
[5] = endpoint: mean survival time, dose: 400.0 mg/kg/injection, schedule: Q01DX009 (ip), vehicle: saline with Tween-80
[6] = endpoint: mean survival time, dose: 400.0 mg/kg/injection, schedule: Q04DX003 (ip), vehicle: saline with Tween-80
[7] = endpoint: mean survival time, dose: 100.0 mg/kg/injection, schedule: Q01DX001 (ip), vehicle: saline with Tween-80
[8] = endpoint: mean survival time, dose: 200.0 mg/kg/injection, schedule: Q01DX001 (ip), vehicle: saline with Tween-80
[9] = endpoint: mean survival time, dose: 400.0 mg/kg/injection, schedule: Q01DX001 (ip), vehicle: saline with Tween-80
[10] = endpoint: mean survival time, dose: 100.0 mg/kg/injection, schedule: Q04DX002 (ip), vehicle: saline with Tween-80
[11] = endpoint: mean survival time, dose: 200.0 mg/kg/injection, schedule: Q04DX002 (ip), vehicle: saline with Tween-80
[12] = endpoint: mean survival time, dose: 400.0 mg/kg/injection, schedule: Q04DX002 (ip), vehicle: saline with Tween-80

O=C(O)CC(NC(=O)CP(=O)(O)O)C(=O)O.[NH-]C1CCCCC1[NH-].[Pt+2] (stereo not given) was tested, and the T/C (endpoint: mean survival time, dose: 3.12 mg/kg/injection, schedule: Q01DX009 (ip), vehicle: dextrose) was 238 % of control, the T/C (endpoint: mean survival time, dose: 6.25 mg/kg/injection, schedule: Q01DX009 (ip), vehicle: dextrose) was 274 % of control and the T/C (endpoint: mean survival time, dose: 7.9 mg/kg/injection, schedule: Q04DX003 (ip), vehicle: saline) was 122 % of control. The T/C (endpoint: mean survival time, dose: 8.0 mg/kg/injection, schedule: Q04DX003 (ip), vehicle: dextrose) was 231 % of control, the T/C (endpoint: mean survival time, dose: 11.9 mg/kg/injection, schedule: Q04DX003 (ip), vehicle: dextrose) was 280 % of control and the T/C (endpoint: mean survival time, dose: 12.0 mg/kg/injection, schedule: Q04DX003 (ip), vehicle: dextrose) was 174 % of control. The T/C (endpoint: mean survival time, dose: 12.5 mg/kg/injection, schedule: Q01DX009 (ip), vehicle: dextrose) was 92 % of control, the T/C (endpoint: mean survival time, dose: 17.89 mg/kg/injection, schedule: Q04DX003 (ip), vehicle: dextrose) was 237 % of control and the T/C (endpoint: mean survival time, dose: 18.0 mg/kg/injection, schedule: Q04DX003 (ip), vehicle: dextrose) was 225 % of control. For the same compound, the T/C (endpoint: mean survival time, dose: 26.7 mg/kg/injection, schedule: Q04DX003 (ip), vehicle: dextrose) was 184 % of control, the T/C (endpoint: mean survival time, dose: 26.7 mg/kg/injection, schedule: Q04DX003 (ip), vehicle: saline) was 260 % of control and the T/C (endpoint: mean survival time, dose: 40.0 mg/kg/injection, schedule: Q04DX003 (ip), vehicle: dextrose) was 265 % of control. For the same compound, the T/C (endpoint: mean survival time, dose: 40.0 mg/kg/injection, schedule: Q04DX003 (ip), vehicle: saline) was 298 % of control, the T/C (endpoint: mean survival time, dose: 60.0 mg/kg/injection, schedule: Q04DX003 (ip), vehicle: dextrose) was 194 % of control and the T/C (endpoint: mean survival time, dose: 60.0 mg/kg/injection, schedule: Q04DX003 (ip), vehicle: saline) was 306 % of control. The T/C (endpoint: mean survival time, dose: 90.0 mg/kg/injection, schedule: Q04DX003 (ip), vehicle: dextrose) was 169 % of control, the T/C (endpoint: median survival time, dose: 2.0 mg/kg/injection, schedule: Q01DX009 (ip), vehicle: dextrose) was 209 % of control and the T/C (endpoint: median survival time, dose: 4.0 mg/kg/injection, schedule: Q01DX009 (ip), vehicle: dextrose) was 262 % of control. The T/C (endpoint: median survival time, dose: 9.0 mg/kg/injection, schedule: Q01DX009 (ip), vehicle: dextrose) was 177 % of control, the T/C (endpoint: median survival time, dose: 10.0 mg/kg/injection, schedule: Q01DX001 (ip), vehicle: dextrose) was 182 % of control and the T/C (endpoint: median survival time, dose: 15.0 mg/kg/injection, schedule: Q01DX001 (ip), vehicle: other) was 201 % of control. The T/C (endpoint: median survival time, dose: 17.98 mg/kg/injection, schedule: Q04DX003 (ip), vehicle: dextrose) was 208 % of control, the T/C (endpoint: median survival time, dose: 20.0 mg/kg/injection, schedule: Q01DX001 (ip), vehicle: dextrose) was 206 % of control and the T/C (endpoint: median survival time, dose: 27.0 mg/kg/injection, schedule: Q04DX003 (ip), vehicle: dextrose) was 220 % of control. The T/C (endpoint: median survival time, dose: 30.0 mg/kg/injection, schedule: Q01DX001 (ip), vehicle: other) was 681 % of control and the T/C (endpoint: median survival time, dose: 40.0 mg/kg/injection, schedule: Q01DX001 (ip), vehicle: dextrose) was 188 % of control.
For S=C1NC(c2ccccc2)NC(c2ccccc2)S1 (stereo not given), the T/C (endpoint: mean survival time, dose: 12.0 mg/kg/injection, schedule: Q04DX003 (ip), vehicle: other) was 86 % of control, the T/C (endpoint: mean survival time, dose: 25.0 mg/kg/injection, schedule: Q04DX003 (ip), vehicle: other) was 97 % of control and the T/C (endpoint: mean survival time, dose: 50.0 mg/kg/injection, schedule: Q04DX003 (ip), vehicle: other) was 90 % of control.
With COc1ccc(Cl)cc1C/C=N/N(C)C the T/C (endpoint: mean survival time, dose: 75.0 mg/kg/injection, schedule: Q01DX001 (ip), vehicle: saline) was 103 % of control and the T/C (endpoint: mean survival time, dose: 150.0 mg/kg/injection, schedule: Q01DX001 (ip), vehicle: saline) was 105 % of control.
For CCC/C=C/C=C/C(=O)OC1/C(=C/C(=O)OC)CC2CC(C(C)O)OC(=O)CC(O)CC3CC(OC(C)=O)C(C)(C)C(O)(CC4C/C(=C/C(=O)OC)CC(/C=C/C(C)(C)C1(O)O2)O4)O3 (stereo not given), the T/C (endpoint: median survival time, dose: 18.75 micrograms/kg/injection, schedule: Q01DX009 (ip), vehicle: saline + alcohol) was 113 % of control and 117 % of control, the T/C (endpoint: median survival time, dose: 37.5 micrograms/kg/injection, schedule: Q01DX009 (ip), vehicle: saline + alcohol) was 124 % of control and the T/C (endpoint: median survival time, dose: 150.0 micrograms/kg/injection, schedule: Q01DX009 (ip), vehicle: saline + alcohol) was 151 % of control.
For O=[N+]([O-])c1ccc(/C=C/C=C/c2ccc(Cl)c(S(=O)(=O)F)c2)c(Cl)c1, the T/C [1] was 97 % of control, the T/C [2] was 102 % of control and the T/C [3] was 103 % of control. For the same compound, the T/C [4] was 102 % of control, the T/C [5] was 106 % of control and the T/C [6] was 102 % of control.
For OC1c2ccccc2-c2ccc(Cl)cc21 (stereo not given), the T/C [2] was 94 % of control, the T/C [4] was 86 % of control and the T/C [6] was 96 % of control.
CC1CCC2NCCCC2C1 (stereo not given) was tested, and the T/C (endpoint: mean survival time, dose: 5.0 mg/kg/injection, schedule: Q04DX002 (ip), vehicle: saline) was 98 % of control, the T/C (endpoint: mean survival time, dose: 10.0 mg/kg/injection, schedule: Q04DX002 (ip), vehicle: saline) was 95 % of control and the T/C (endpoint: mean survival time, dose: 20.0 mg/kg/injection, schedule: Q04DX002 (ip), vehicle: saline) was 98 % of control.
With CN(N=O)C(=O)NC1C(CO)OC(n2ccc(N)nc2=O)C1O (stereo not given) the T/C (endpoint: mean survival time, dose: 12.5 mg/kg/injection, schedule: Q01DX001 (ip), vehicle: saline with Tween-80) was 101 % of control, the T/C (endpoint: mean survival time, dose: 25.0 mg/kg/injection, schedule: Q01DX001 (ip), vehicle: saline with Tween-80) was 110 % of control and the T/C (endpoint: mean survival time, dose: 50.0 mg/kg/injection, schedule: Q01DX001 (ip), vehicle: saline with Tween-80) was 98 % of control. For the same compound, the T/C [7] was 98 % of control, the T/C [8] was 103 % of control and the T/C [9] was 108 % of control.
For Cn1c(=O)[nH]c2c(nc(-c3ccccc3)n2Cc2ccccc2)c1=O, the T/C (endpoint: mean survival time, dose: 7.8 mg/kg/injection, schedule: Q01DX005 (ip), vehicle: other) was 95 % of control, the T/C (endpoint: mean survival time, dose: 15.6 mg/kg/injection, schedule: Q01DX005 (ip), vehicle: other) was 95 % of control and the T/C (endpoint: mean survival time, dose: 31.3 mg/kg/injection, schedule: Q01DX005 (ip), vehicle: other) was 91 % of control. The T/C (endpoint: mean survival time, dose: 62.5 mg/kg/injection, schedule: Q01DX005 (ip), vehicle: other) was 91 % of control and the T/C (endpoint: mean survival time, dose: 125.0 mg/kg/injection, schedule: Q01DX005 (ip), vehicle: other) was 95 % of control.
For CCCCOC(=O)CC(=O)OCCCC, the T/C [1] was 102 % of control, the T/C [2] was 101 % of control and the T/C [3] was 104 % of control. For the same compound, the T/C [4] was 93 % of control, the T/C [5] was 96 % of control and the T/C [6] was 93 % of control.
C=CCNC(=O)c1ccc[n+](CC(=O)Nc2ccccc2)c1 was tested, and the T/C [2] was 103 % of control.
In the case of COc1ccc(-n2c(=O)[nH]c3c(c2=O)C(c2ccc(Cl)cc2)C(C)(C)O3)cc1 (stereo not given), the T/C [10] is reported as 100 % of control, the T/C [11] is reported as 95 % of control and the T/C [12] is reported as 103 % of control.
For CCOC(=O)C(C(=O)OCC)C1c2ccccc2C(=O)N(CCN(C)C)c2ccccc21 (stereo not given), the T/C (endpoint: mean survival time, dose: 130.0 mg/kg/injection, schedule: Q01DX001 (ip), vehicle: saline) was 103 % of control.
CC(N)C(=O)O (stereo not given) was tested, and the T/C (endpoint: mean survival time, dose: 100.0 mg/kg/injection, schedule: Q01DX001 (ip), vehicle: saline) was 106 % of control, the T/C (endpoint: mean survival time, dose: 200.0 mg/kg/injection, schedule: Q01DX001 (ip), vehicle: saline) was 112 % of control and the T/C (endpoint: mean survival time, dose: 400.0 mg/kg/injection, schedule: Q01DX001 (ip), vehicle: saline) was 98 % of control.
For O=C(CNC(=O)Nc1cccc(C(F)(F)F)c1)N/N=C/c1cccc([N+](=O)[O-])c1, the T/C (endpoint: mean survival time, dose: 50.0 mg/kg/injection, schedule: Q01DX009 (ip), vehicle: saline with Tween-80) was 96 % of control, the T/C [1] was 88 % of control and the T/C [3] was 92 % of control.
CC1=C(C)CS(=O)(=O)N(c2ccccc2)C1 was tested, and the T/C [7] was 101 % of control, the T/C [1] was 98 % of control and the T/C [8] was 98 % of control. For the same compound, the T/C [3] was 95 % of control, the T/C [9] was 86 % of control and the T/C [5] was 95 % of control.
COc1ccccc1N=Nc1c(O)n(-c2ccc(Br)cc2)c(=S)n(-c2ccccc2)c1=O was tested, and the T/C [7] was 93 % of control, the T/C [8] was 93 % of control and the T/C [9] was 87 % of control.
In the case of NC(=S)N/N=C/c1ccc(I)cn1, the T/C [10] is reported as 93 % of control, the T/C [11] is reported as 93 % of control and the T/C [12] is reported as 93 % of control.
For CCC1(O)C(=O)OCc2c1cc1n(c2=O)Cc2cc3ccc(C#N)cc3nc2-1 (stereo not given), the T/C (endpoint: median survival time, dose: 2.5 mg/kg/injection, schedule: Q04DX002 (ip), vehicle: saline with Tween-80) was 152 % of control, the T/C (endpoint: median survival time, dose: 5.0 mg/kg/injection, schedule: Q04DX002 (ip), vehicle: saline with Tween-80) was 196 % of control and the T/C (endpoint: median survival time, dose: 10.0 mg/kg/injection, schedule: Q04DX002 (ip), vehicle: saline with Tween-80) was 250 % of control and 365 % of control. The T/C (endpoint: median survival time, dose: 20.0 mg/kg/injection, schedule: Q04DX002 (ip), vehicle: saline with Tween-80) was 101 % of control and 103 % of control.

— PubChem BioAssay AID256 (DTP/NCI, 2004)
